The results in this text go back to patent US9169229B2, “Method for producing purified dialkyl-furan-2,5-dicarboxylate by physical separation and solid liquid separation” (Eastman Chemical Company, priority 2012, dated 2015).

Data set [1] in a line: Solubility of DMFD in water (jacketed solubility cell, samples analyzed by gas chromatography). The data set is classed as physicochemical. As for the experimental part:
(§1) The solubility of DMFD in water and methanol was tested according to the following procedure: A jacketed 120 ml solubility cells equipped with a condenser, a digital thermometer, a nitrogen blanket and connected to a circulating bath capable of heating/cooling was charged with […] and water or methanol. The heterogeneous mixture was heated to the desired temperature and sample was taken using preheated fritted glass pipette. The samples were analyzed using gas chromatography.

A short description of data set [2]: Solubility of DMFD in methanol (jacketed solubility cell, samples analyzed by gas chromatography). Format: physicochemical. As for the experimental part: as §1

For the compound `COC(=O)c1ccc(C(=O)OC)o1` [DMFD, dimethyl furan-2,5-dicarboxylate], in data set [1] (temperature points from about 1° C. to about 61° C.), the “solubility of DMFD in water compared to methanol (in words)” value is “very low solubility in water compared to methanol”. Besides, the “DMFD Solubility (wt %) in Water” value in data set [1] (T 1.4 ° C.) is listed as “BDL”; in data set [1] (T 13.1 ° C.) it was “BDL”; in data set [1] (T 26.6 ° C.) it was “BDL”; in data set [1] (T 35.6 ° C.), “BDL”; in data set [1] (T 47.0 ° C.) it was 0.1 wt %; in data set [1] (T 56.6 ° C.) it was 0.2 wt %. The “DMFD Solubility (wt %) in Water” value worked out at 0.3 wt % in data set [1] (T 63.9 ° C.), 0.4 wt % in data set [1] (T 74.6 ° C.), 0.9 wt % in data set [1] (T 89.5 ° C.) and 1.3 wt % in data set [1] (T 97.5 ° C.). In addition, the “DMFD Solubility (wt %) in Methanol” value came out at 0.6 wt % in data set [2] (T 1.0 ° C.); 1.4 wt % in data set [2] (T 14.1 ° C.); 2.8 wt % in data set [2] (T 26.3 ° C.); 4.5 wt % in data set [2] (T 35.3 ° C.); 8.7 wt % in data set [2] (T 46.6 ° C.); 15.4 wt % in data set [2] (T 56.1 ° C.). Further, the “DMFD Solubility (wt %) in Methanol” value in data set [2] (T 61.3 ° C.) turned out to be 20.8 wt %.
